Test results taken from the NIST ThermoML archive (doi:10.1016/j.tca.2011.09.016).
Numbers after ± are expanded uncertainties.

Conditions: Crystal 2; AC calorimetry

Triple point temperature: 177.5 ± 0.1 K
SMILES: O=P([O-])(O)P(=O)([O-])O.[NH4+].[NH4+] [diammonium hypodiphosphate]
